# Source: paper PMC5218480 (PLoS ONE, 2017)
# Test system: MV-4-11 cells
# Assay: Gene expression microarray analysis (Affymetrix PrimeView) and GSEA
# Type: cell-based, human
# Design: RFU PODN (11730768_x_at) / Fold change /veh PODN (11730768_x_at) / RFU LINC00158 (11744669_a_at) / Fold change /veh LINC00158 (11744669_a_at) / RFU DUSP10 (11751237_a_at) / Fold change /veh DUSP10 (11751237_a_at) / RFU ID3 (11757404_x_at) / Fold change /veh ID3 (11757404_x_at) / RFU PLEKHG5 (11737974_s_at) / Fold change /veh PLEKHG5 (11737974_s_at) / RFU LRRC4B (11730491_at) / Fold change /veh LRRC4B (11730491_at) / RFU GIMAP4 (11747438_a_at) / Fold change /veh GIMAP4 (11747438_a_at) / RFU KRT8 (11758183_x_at) / Fold change /veh KRT8 (11758183_x_at) / RFU CNN1 (11734310_a_at) / Fold change /veh CNN1 (11734310_a_at) / RFU VPS37D (11726825_at) / Fold change /veh VPS37D (11726825_at) / RFU C10orf10 (11716522_x_at) / Fold change /veh C10orf10 (11716522_x_at) / RFU KIR2DL2 /// KIR2DL4 /// KIR2DL5A /// KIR2DL5B /// KIR2DS1 /// KIR2DS2 /// KIR2DS3 /// KIR2DS4 /// KIR3DL3 /// KIR3DL3 /// KIR3DS1 (11738374_at) / Fold change /veh KIR2DL2 /// KIR2DL4 /// KIR2DL5A /// KIR2DL5B /// KIR2DS1 /// KIR2DS2 /// KIR2DS3 /// KIR2DS4 /// KIR3DL3 /// KIR3DL3 /// KIR3DS1 (11738374_at) / RFU C1QL1 (11718748_at) / Fold change /veh C1QL1 (11718748_at) / RFU TMPRSS4 (11747572_a_at) / Fold change /veh TMPRSS4 (11747572_a_at) / RFU HAMP (11756126_x_at) / Fold change /veh HAMP (11756126_x_at) / RFU RNFT2 (11725882_a_at) / Fold change /veh RNFT2 (11725882_a_at) / RFU NR4A2 (11747474_a_at) / Fold change /veh NR4A2 (11747474_a_at) / RFU ABCC12 (11746883_a_at) / Fold change /veh ABCC12 (11746883_a_at) / RFU TMEM136 (11760407_x_at) / Fold change /veh TMEM136 (11760407_x_at) / RFU CLDN22 /// WWC2 (11732394_at) / Fold change /veh CLDN22 /// WWC2 (11732394_at) / RFU HLA-DPB1 (11760878_x_at) / Fold change /veh HLA-DPB1 (11760878_x_at) / RFU SPINT1 (11716480_a_at) / Fold change /veh SPINT1 (11716480_a_at) / RFU GAP43 (11754022_s_at) / Fold change /veh GAP43 (11754022_s_at) / RFU A4GNT (11735810_at) / Fold change /veh A4GNT (11735810_at) / RFU PRB3 (11715151_x_at) / Fold change /veh PRB3 (11715151_x_at) / RFU TUBB4B (11761932_at) / Fold change /veh TUBB4B (11761932_at) / RFU CAPN14 (11732068_a_at) / Fold change /veh CAPN14 (11732068_a_at) / RFU TMCC2 (11721928_a_at) / Fold change /veh TMCC2 (11721928_a_at) / RFU IRGQ (11745062_a_at) / Fold change /veh IRGQ (11745062_a_at) / RFU FAM174B (11720279_a_at) / Fold change /veh FAM174B (11720279_a_at) / RFU TMPRSS4 (11748680_a_at) / Fold change /veh TMPRSS4 (11748680_a_at) / RFU FAM212B (11763350_a_at) / Fold change /veh FAM212B (11763350_a_at) / RFU PLEKHG5 (11743358_a_at) / Fold change /veh PLEKHG5 (11743358_a_at) / RFU ZSCAN30 (11745921_a_at) / Fold change /veh ZSCAN30 (11745921_a_at) / RFU CMKLR1 (11741424_a_at) / Fold change /veh CMKLR1 (11741424_a_at) / RFU LOC101060620 /// MAPK8IP1 (11723275_at) / Fold change /veh LOC101060620 /// MAPK8IP1 (11723275_at) / RFU SPTSSB (11747773_x_at) / Fold change /veh SPTSSB (11747773_x_at) / RFU PRSS12 (11739890_at) / Fold change /veh PRSS12 (11739890_at) / RFU BIN1 (11741810_x_at) / Fold change /veh BIN1 (11741810_x_at) / RFU WNT11 (11732464_a_at) / Fold change /veh WNT11 (11732464_a_at) / RFU C10orf10 (11716521_a_at) / Fold change /veh C10orf10 (11716521_a_at) / RFU C5orf56 (11738089_at) / Fold change /veh C5orf56 (11738089_at) / RFU CYB561 (11721691_x_at) / Fold change /veh CYB561 (11721691_x_at) / RFU ANKRD19P (11752326_a_at) / Fold change /veh ANKRD19P (11752326_a_at) / RFU OR2T12 /// OR2T33 /// OR2T8 (11738714_s_at) / Fold change /veh OR2T12 /// OR2T33 /// OR2T8 (11738714_s_at) / RFU VCAN (11748164_a_at) / Fold change /veh VCAN (11748164_a_at) / RFU JSRP1 (11732532_at) / Fold change /veh JSRP1 (11732532_at) / RFU KRTAP10-11 (11738290_x_at) / Fold change /veh KRTAP10-11 (11738290_x_at) / RFU MYO3A (11730013_a_at) / Fold change /veh MYO3A (11730013_a_at) / RFU EBF3 (11725865_a_at) / Fold change /veh EBF3 (11725865_a_at) / RFU CAMK2N1 (11719241_x_at) / Fold change /veh CAMK2N1 (11719241_x_at) / RFU C5orf56 (11738088_a_at) / Fold change /veh C5orf56 (11738088_a_at) / RFU OLFML3 (11715873_a_at) / Fold change /veh OLFML3 (11715873_a_at) / RFU LOC100653217 /// NTM (11731650_a_at) / Fold change /veh LOC100653217 /// NTM (11731650_a_at) / RFU MAPK11 (11762145_a_at) / Fold change /veh MAPK11 (11762145_a_at) / RFU FIZ1 (11724087_x_at) / Fold change /veh FIZ1 (11724087_x_at) / RFU OASL (11726364_x_at) / Fold change /veh OASL (11726364_x_at) / RFU SOX15 (11748057_x_at) / Fold change /veh SOX15 (11748057_x_at) / RFU CD79A (11719716_a_at) / Fold change /veh CD79A (11719716_a_at) / RFU HIST1H1D (11736915_at) / Fold change /veh HIST1H1D (11736915_at) / RFU CASKIN2 (11723855_a_at) / Fold change /veh CASKIN2 (11723855_a_at) / RFU LOC730098 (11760151_x_at) / Fold change /veh LOC730098 (11760151_x_at) / RFU OR4N2 (11742367_at) / Fold change /veh OR4N2 (11742367_at) / RFU PRRT2 (11749266_a_at) / Fold change /veh PRRT2 (11749266_a_at) / RFU SNX32 (11753110_a_at) / Fold change /veh SNX32 (11753110_a_at) / RFU CDHR5 (11726645_a_at) / Fold change /veh CDHR5 (11726645_a_at) / RFU RCAN1 (11760418_a_at) / Fold change /veh RCAN1 (11760418_a_at) / RFU FAM167A (11723789_a_at) / Fold change /veh FAM167A (11723789_a_at) / RFU FAM26E (11764081_at) / Fold change /veh FAM26E (11764081_at) / RFU ISYNA1 (11749810_s_at) / Fold change /veh ISYNA1 (11749810_s_at) / RFU ACY1 (11761880_at) / Fold change /veh ACY1 (11761880_at) / RFU 11764098_at / Fold change /veh 11764098_at / RFU SAMD14 (11745864_x_at) / Fold change /veh SAMD14 (11745864_x_at) / RFU NPB (11741838_a_at) / Fold change /veh NPB (11741838_a_at) / RFU TMPRSS6 (11731388_a_at) / Fold change /veh TMPRSS6 (11731388_a_at) / RFU KRTAP10-2 (11738614_at) / Fold change /veh KRTAP10-2 (11738614_at) / RFU ARHGAP8 /// PRR5-ARHGAP8 (11727945_x_at) / Fold change /veh ARHGAP8 /// PRR5-ARHGAP8 (11727945_x_at) / RFU KRTAP5-7 /// NADSYN1 (11734609_at) / Fold change /veh KRTAP5-7 /// NADSYN1 (11734609_at) / RFU RASL12 (11751679_a_at) / Fold change /veh RASL12 (11751679_a_at) / RFU CDKN2B (11736163_a_at) / Fold change /veh CDKN2B (11736163_a_at) / RFU PRF1 (11729649_at) / Fold change /veh PRF1 (11729649_at) / RFU, ZNF638 /// ZNF638-IT1 / Fold change vs veh, ZNF638 /// ZNF638-IT1 / RFU, PANK3 / Fold change vs veh, PANK3 / RFU, SH3YL1 / Fold change vs veh, SH3YL1 / RFU, ZEB2 / Fold change vs veh, ZEB2 / RFU, NRIP1 / Fold change vs veh, NRIP1 / RFU, PTTG1IP / Fold change vs veh, PTTG1IP / RFU, CAPN2 / Fold change vs veh, CAPN2 / RFU, MED14 / Fold change vs veh, MED14 / RFU, SNORA58 / Fold change vs veh, SNORA58 / RFU, C1orf63 / Fold change vs veh, C1orf63 / RFU, LRRFIP1 / Fold change vs veh, LRRFIP1 / RFU, NDUFAF7 / Fold change vs veh, NDUFAF7 / RFU, SLC12A2 / Fold change vs veh, SLC12A2 / RFU, IBTK / Fold change vs veh, IBTK / RFU, ESF1 / Fold change vs veh, ESF1 / Fold change vs veh, TMEM50B / RFU, TAOK1 / Fold change vs veh, TAOK1 / RFU, ACBD3 / Fold change vs veh, ACBD3 / RFU, TMA16 / Fold change vs veh, TMA16 / RFU, RWDD3 / Fold change vs veh, RWDD3 / RFU, BCAT1 / Fold change vs veh, BCAT1 / RFU, EDEM3 / Fold change vs veh, EDEM3 / RFU, TMEM33 / Fold change vs veh, TMEM33 / RFU, WDR75 / Fold change vs veh, WDR75 / RFU, AHCTF1 / Fold change vs veh, AHCTF1 / RFU, TFRC / Fold change vs veh, TFRC / RFU, ZDHHC17 / Fold change vs veh, ZDHHC17 / RFU, NOM1 / Fold change vs veh, NOM1 / RFU, ARL8B / Fold change vs veh, ARL8B / RFU, ZBTB11 / Fold change vs veh, ZBTB11 / RFU, TAMM41 / Fold change vs veh, TAMM41 / RFU, KIAA1704 /// LOC100996395 / Fold change vs veh, KIAA1704 /// LOC100996395 / RFU, ING1 / Fold change vs veh, ING1 / RFU, TRMT61B / Fold change vs veh, TRMT61B / RFU, FUBP3 / Fold change vs veh, FUBP3 / RFU, TP53 / Fold change vs veh, TP53 / RFU, TNKS2 / Fold change vs veh, TNKS2 / RFU, ZFP14 / Fold change vs veh, ZFP14 / RFU, ACTR2 / Fold change vs veh, ACTR2 / RFU, PPP3R1 / Fold change vs veh, PPP3R1 / RFU, PIK3R1 / Fold change vs veh, PIK3R1 / RFU, HNRNPA1 / Fold change vs veh, HNRNPA1 / RFU, RNF170 / Fold change vs veh, RNF170 / RFU, ZNF28 / Fold change vs veh, ZNF28 / RFU, RNGTT / Fold change vs veh, RNGTT / RFU, OGT / Fold change vs veh, OGT / RFU, BRD1 / Fold change vs veh, BRD1 / RFU, MARS / Fold change vs veh, MARS / RFU, ZNF655 / Fold change vs veh, ZNF655 / RFU, FAHD1 / Fold change vs veh, FAHD1 / RFU, BDP1 / Fold change vs veh, BDP1 / RFU, LRRCC1 / Fold change vs veh, LRRCC1 / RFU, ARID1A / Fold change vs veh, ARID1A / RFU, ZNF146 / Fold change vs veh, ZNF146 / RFU, ZNF330 / Fold change vs veh, ZNF330 / RFU, GPN3 / Fold change vs veh, GPN3 / RFU, C9orf123 / Fold change vs veh, C9orf123 / RFU, N4BP2L2 / Fold change vs veh, N4BP2L2 / RFU, ARFIP1 / Fold change vs veh, ARFIP1 / RFU, FAM179B / Fold change vs veh, FAM179B / RFU, BCL10 / Fold change vs veh, BCL10 / RFU, UHRF1BP1L / Fold change vs veh, UHRF1BP1L / RFU, BET1 / Fold change vs veh, BET1 / RFU, CNOT2 / Fold change vs veh, CNOT2 / RFU, ZNF268 / Fold change vs veh, ZNF268 / Fold change vs veh, ZNF507 / RFU, DGCR2 / Fold change vs veh, DGCR2 / RFU, WDSUB1 / Fold change vs veh, WDSUB1 / Fold change vs veh, HSP90B1 /// MIR3652 / RFU, ADSS / Fold change vs veh, ADSS / RFU, GK / Fold change vs veh, GK / RFU, ZNF148 / Fold change vs veh, ZNF148 / RFU, TAF9 / Fold change vs veh, TAF9 / RFU, SLC1A5 / Fold change vs veh, SLC1A5 / RFU, SLMO2 / Fold change vs veh, SLMO2 / RFU, ABCC4 / Fold change vs veh, ABCC4 / RFU, LOC101060439 /// RAP1B / Fold change vs veh, LOC101060439 /// RAP1B / RFU, RFX7 / Fold change vs veh, RFX7 / RFU, GTPBP10 / Fold change vs veh, GTPBP10 / RFU, CNEP1R1 / Fold change vs veh, CNEP1R1 / RFU, BIVM-ERCC5 /// ERCC5 / Fold change vs veh, BIVM-ERCC5 /// ERCC5 / RFU, ILF3 / Fold change vs veh, ILF3 / RFU 11762660_at / Fold change /veh 11762660_at / RFU VCAN (11757783_s_at) / Fold change /veh VCAN (11757783_s_at) / RFU DDX43 (11728927_at) / Fold change /veh DDX43 (11728927_at) / RFU KRT8 (11758188_x_at) / Fold change /veh KRT8 (11758188_x_at) / RFU NKD1 (11759106_at) / Fold change /veh NKD1 (11759106_at) / RFU SRD5A1 (11742802_a_at) / Fold change /veh SRD5A1 (11742802_a_at) / RFU TPSAB1 /// TPSB2 (11721975_s_at) / Fold change /veh TPSAB1 /// TPSB2 (11721975_s_at) / RFU GSTM3 (11746129_a_at) / Fold change /veh GSTM3 (11746129_a_at) / RFU IL23R (11737362_x_at) / Fold change /veh IL23R (11737362_x_at) / RFU TMEM51 (11727254_a_at) / Fold change /veh TMEM51 (11727254_a_at) / RFU PIWIL2 (11732686_x_at) / Fold change /veh PIWIL2 (11732686_x_at) / RFU ORM1 (11744905_x_at) / Fold change /veh ORM1 (11744905_x_at) / RFU CCDC152 (11743942_at) / Fold change /veh CCDC152 (11743942_at) / RFU ECM1 (11717891_a_at) / Fold change /veh ECM1 (11717891_a_at) / RFU IL23R (11748794_a_at) / Fold change /veh IL23R (11748794_a_at) / RFU TNFAIP8L3 (11732012_x_at) / Fold change /veh TNFAIP8L3 (11732012_x_at) / RFU MBOAT4 (11741988_at) / Fold change /veh MBOAT4 (11741988_at) / RFU 11764193_at / Fold change /veh 11764193_at / RFU TMEM53 (11763286_at) / Fold change /veh TMEM53 (11763286_at) / RFU MAGEB2 (11727129_at) / Fold change /veh MAGEB2 (11727129_at) / RFU TMEM200A (11744735_a_at) / Fold change /veh TMEM200A (11744735_a_at) / RFU CCDC152 (11751479_a_at) / Fold change /veh CCDC152 (11751479_a_at) / RFU FAM211A (11726209_a_at) / Fold change /veh FAM211A (11726209_a_at) / RFU RGS16 (11746705_a_at) / Fold change /veh RGS16 (11746705_a_at) / RFU VCAN (11755009_s_at) / Fold change /veh VCAN (11755009_s_at) / RFU RHOB (11743442_s_at) / Fold change /veh RHOB (11743442_s_at) / RFU RGS16 (11720943_a_at) / Fold change /veh RGS16 (11720943_a_at) / RFU RGS16 (11720944_at) / Fold change /veh RGS16 (11720944_at) / RFU, VPS4B / Fold change vs veh, VPS4B / RFU, CREB1 / Fold change vs veh, CREB1 / RFU, DNAJC13 / Fold change vs veh, DNAJC13 / RFU, GNAQ / Fold change vs veh, GNAQ / RFU, CDK5R1 / Fold change vs veh, CDK5R1 / RFU, ZRANB3 / Fold change vs veh, ZRANB3 / RFU, CUL4A / Fold change vs veh, CUL4A / RFU, CCNY / Fold change vs veh, CCNY / RFU, UFL1 / Fold change vs veh, UFL1 / RFU, COG3 / Fold change vs veh, COG3 / RFU, DIAPH2 / Fold change vs veh, DIAPH2 / RFU, SKA2 / Fold change vs veh, SKA2 / RFU, AFF3 / Fold change vs veh, AFF3 / RFU, LMF1 / Fold change vs veh, LMF1 / RFU, IPO11 / Fold change vs veh, IPO11 / RFU, DFFB / Fold change vs veh, DFFB / RFU, FOXP1 / Fold change vs veh, FOXP1 / RFU, CARD8 / Fold change vs veh, CARD8 / RFU, STRN3 / Fold change vs veh, STRN3 / RFU, ADK / Fold change vs veh, ADK / RFU, RASSF2 / Fold change vs veh, RASSF2 / RFU, WIPF1 / Fold change vs veh, WIPF1 / RFU, LARP1B / Fold change vs veh, LARP1B / RFU, RASA1 / Fold change vs veh, RASA1 / RFU, RB1 / Fold change vs veh, RB1 / RFU, PPFIA1 / Fold change vs veh, PPFIA1 / RFU, MAT2A / Fold change vs veh, MAT2A / RFU, CCT5 / Fold change vs veh, CCT5 / RFU, WDR92 / Fold change vs veh, WDR92 / RFU, CUX1 / Fold change vs veh, CUX1 / RFU, TTC7A / Fold change vs veh, TTC7A / RFU, TMEM135 / Fold change vs veh, TMEM135 / RFU, DEPTOR / Fold change vs veh, DEPTOR / RFU, CPM / Fold change vs veh, CPM / RFU, DNAJB6 / Fold change vs veh, DNAJB6 / RFU, CACNA2D3 / Fold change vs veh, CACNA2D3 / RFU, DTX4 / Fold change vs veh, DTX4 / RFU, TFCP2 / Fold change vs veh, TFCP2 / RFU, GMCL1 /// GMCL1P1 / Fold change vs veh, GMCL1 /// GMCL1P1 / RFU, AEBP2 / Fold change vs veh, AEBP2 / RFU, SNHG1 /// SNORD22 /// SNORD25 /// SNORD26 /// SNORD27 /// SNORD28 /// SNORD29 /// SNORD31 / Fold change vs veh, SNHG1 /// SNORD22 /// SNORD25 /// SNORD26 /// SNORD27 /// SNORD28 /// SNORD29 /// SNORD31 / Fold change (Aza/veh), C12orf56 (ProbeSet 11735607_a_at) / Fold change (ACY-1035/veh), C12orf56 (ProbeSet 11735607_a_at) / Fold change (Aza/veh), FGFR1OP (ProbeSet 11751329_s_at) / Fold change (ACY-1035/veh), FGFR1OP (ProbeSet 11751329_s_at) / Fold change (Aza/veh), VPS36 (ProbeSet 11739960_a_at) / Fold change (ACY-1035/veh), VPS36 (ProbeSet 11739960_a_at) / RFU SYPL1 (11715823_x_at) / Fold change /veh SYPL1 (11715823_x_at) / RFU IGFBP7 (11715501_s_at) / Fold change /veh IGFBP7 (11715501_s_at) / RFU REEP3 (11722064_at) / Fold change /veh REEP3 (11722064_at) / RFU IGLL1 (11728026_x_at) / Fold change /veh IGLL1 (11728026_x_at): dose or concentration left out as unconfirmed
# Conditions: ProbeSet 11721611_a_at; LIST D
smiles,measurement,value
Nc1ccc(-c2cccs2)cc1NC(=O)c1ccc2c(c1)cc(C1CC1)n2CCN1CCOCC1 [ACY-1035],"Fold change vs veh, IPO11",0.84
